From ChEMBL document CHEMBL5096208, “Installation of Pargyline, a LSD1 Inhibitor, in the HDAC Inhibitory Template Culminated in the Identification of a Tractable Antiprostate Cancer Agent” (J Med Chem, 2021)
Calls of active or inactive are those of the source. The rule behind the calls is not given here.

Tests used:
PC-3 [1] = assay: Antiproliferative activity against human PC-3 cells assessed as cell growth inhibition incubated for 48 hrs by MTT assay; format: functional
DU-145 [2] = assay: Antiproliferative activity against human DU-145 cells assessed as cell growth inhibition incubated for 48 hrs by MTT assay; format: functional
PC-3 [3] = assay: Antiproliferative activity against human PC-3 cells assessed as cell growth inhibition at upto 10 uM; format: functional, cell-based; conditions: time 48.0 hrs
PC-3 [4] = assay: Antitumor activity against human PC-3 cells xenografted in athymic nude mouse assessed as tumor growth inhibition at 20 mg/kg, ip administered every 4 days for 4 doses and measured upto 25 days by caliper method relative to control; format: functional; conditions: PC-3, 600 h, time <= 25 day, read-out: TGI
DU-145 [5] = assay: Antitumor activity against human DU-145 cells xenografted in athymic nude mouse assessed as tumor growth inhibition at 20 mg/kg, ip administered every 4 days for 5 doses and measured upto 60 days by caliper method relative to control; format: functional; conditions: DU-145, 1440 h, time <= 60 day, read-out: TGI
[6] = Toxicity in athymic nude mouse xenografted with human PC-3 cells assessed as change in body weight at 20 mg/kg, ip administered every 4 days for 4 doses and measured upto 25 days; format: organism-based; conditions: in vivo, 600 h, time < 25 day
[7] = Toxicity in athymic nude mouse xenografted with human PC-3 cells assessed as change in body weight at 50 to 100 mg/kg, po qd measured upto 25 days; format: organism-based; conditions: in vivo, 600 h, dose 50-100 mg/kg, time < 25 day
[8] = Toxicity in athymic nude mouse xenografted with human DU-145 cells assessed as change in body weight at 20 mg/kg, ip administered every 4 days for 5 doses and measured upto 60 days; format: organism-based; conditions: in vivo, 1440 h, time < 60 day
[9] = Toxicity in athymic nude mouse xenografted with human DU-145 cells assessed as change in body weight at 50 mg/kg, po qd measured upto 60 days; format: organism-based; conditions: in vivo, 1440 h, time < 60 day
[10] = Toxicity in athymic nude mouse xenografted with human DU-145 cells assessed as change in body weight at 100 to 200 mg/kg, po administered every 2 days and measured upto 60 days; format: organism-based; conditions: in vivo, 1440 h, dose 100-200 mg/kg, time < 60 day

Structure (SMILES)	GI50 (PC-3 [1]) [µM]	GI50 (DU-145 [2]) [µM]	further results
C#CCN(C)Cc1ccc(NCc2ccc(C(=O)NO)cc2)cc1	> 10	> 10	–
C#CCN(C)Cc1cccc(NC(=O)CCC(=O)NO)c1	> 10	> 10	–
C#CCN(C)Cc1cccc(NC(=O)CCCCCCCCC(=O)NO)c1	1.79	2.94	–
C#CCN(C)Cc1ccc(NC(=O)CCC(=O)NO)cc1	> 10	> 10	–
C#CCN(C)Cc1ccccc1 [PARGYLINE]	197	219	–
Cn1cc(-c2ccc(S(=O)(=O)n3ccc(/C=C/C(=O)Nc4ccccc4N)c3)cc2)cn1	–	–	Activity (PC-3 [3]): Active
C#CCN(C)Cc1cccc(NS(=O)(=O)c2ccc(/C=C/C(=O)NO)cc2)c1	2.23	2.35	–
C#CCN(C)Cc1ccc(NC(=O)CCCC(=O)NO)cc1	> 10	> 10	–
C#CCN(C)Cc1ccc(NC(=O)CCCCCC(=O)NO)cc1	> 10	> 10	–
C#CCN(C)Cc1cccc(NS(=O)(=O)c2cccc(/C=C/C(=O)NO)c2)c1	1.23	0.21	–
C#CCN(C)Cc1cccc(NCc2ccc(/C=C/C(=O)NO)cc2)c1	0.85	0.54	–
CNC(=O)c1ccc(N2C(=S)N(c3ccc(C#N)c(C(F)(F)F)c3)C(=O)C2(C)C)cc1F [ENZALUTAMIDE]	> 10	> 10	–
CC(=O)O[C@H]1C(=O)[C@@]2(C)[C@H]([C@H](OC(=O)c3ccccc3)[C@]3(O)C[C@H](OC(=O)[C@H](O)[C@@H](NC(=O)c4ccccc4)c4ccccc4)C(C)=C1C3(C)C)[C@]1(OC(C)=O)CO[C@@H]1C[C@@H]2O [PACLITAXEL]	–	–	inhibition in vivo at 20 mg/kg (PC-3 [4]): 47.8%; inhibition in vivo at 20 mg/kg (DU-145 [5]): 47%; Activity [6]: Non-Toxic; Activity [7]: Non-Toxic; Activity [8]: Non-Toxic; Activity [9]: Non-Toxic; Activity [10]: Non-Toxic
C#CCN(C)Cc1ccc(NC(=O)CCCCCCC(=O)NO)cc1	2.28	1.51	–
Nc1ccccc1NC(=O)c1ccc(CCCC(=O)Nc2ccc([C@H]3C[C@@H]3N)cc2)cc1	–	–	Activity (PC-3 [3]): Active
C#CCN(C)Cc1cccc(NCc2ccc(C(=O)NO)cc2)c1	> 10	> 10	–
C#CCN(C)Cc1ccc(NC(=O)CCCCC(=O)NO)cc1	> 10	> 10	–
C#CCN(C)Cc1cccc(NC(=O)CCCCC(=O)NO)c1	5.15	9.75	–

Now from value to molecule, other results behind:

GI50 (PC-3 [1]) [µM]	GI50 (DU-145 [2]) [µM]	Structure (SMILES)	further results
4.07	3.78	C#CCN(C)Cc1cccc(NC(=O)CCCCCCCC(=O)NO)c1	–
0.367	0.21	C#CCN(C)Cc1ccc(NS(=O)(=O)c2cccc(/C=C/C(=O)NO)c2)cc1	–
> 10	> 10	C[C@]12CC[C@H](O)CC1=CC[C@@H]1[C@@H]2CC[C@]2(C)C(c3cccnc3)=CC[C@@H]12 [ABIRATERONE]	–
> 10	> 10	C#CCN(C)Cc1cccc(NC(=O)CCCC(=O)NO)c1	–
7.16	3.4	C#CCN(C)Cc1ccc(NC(=O)CCCCCCCC(=O)NO)cc1	–
4.26	2.74	C#CCN(C)Cc1ccc(NC(=O)CCCCCCCCC(=O)NO)cc1	–
0.71	0.96	C#CCN(C)Cc1ccc(NS(=O)(=O)c2ccc(/C=C/C(=O)NO)cc2)cc1	–
0.75	0.56	C#CCN(C)Cc1ccc(NCc2ccc(/C=C/C(=O)NO)cc2)cc1	–
4.63	4.29	C#CCN(C)Cc1cccc(NC(=O)CCCCCC(=O)NO)c1	–
